Converted amounts (≈) assume the structure as drawn. The source made the active and inactive calls. The rule behind the calls is not given here.
Legend:
[1] = test system: Candida albicans; experiment: Synergistic antifungal activity against FLC resistant Candida albicans 0710922 assessed as FIC index after 48 hrs by checkerboard microdilution method; format: functional
[2] = test system: Candida albicans; experiment: microbe, parasite or virus in culture; format: functional; conditions: Candida albicans, 0710922, 48 h
Description: Antifungal activity against FLC resistant Candida albicans 0710922 after 48 hrs by checkerboard microdilution method

[3] = target: Tyrosine-protein kinase JAK2 (Homo sapiens, UniProt O60674); experiment: Inhibition of JAK2 (unknown origin) using FAM-labeled peptide as substrate preincubated for 10 mins followed by substrate addition and measured after 25 mins in presence of ATP
[4] = test system: HL-60; experiment: Antiproliferative activity against human HL60 cells after 48 hrs by CCK-8 assay; format: functional, cell-based; conditions: HL-60, 48 h
[5] = test system: Candida albicans; experiment: microbe, parasite or virus in culture; format: functional; conditions: Candida albicans, 0710922, 48 h; remark: listed apart in the source
Description: Antifungal activity against FLC resistant Candida albicans 0710922 after 48 hrs in presence of fluconazol by checkerboard microdilution method

[6] = test system: Candida albicans; experiment: microbe, parasite or virus in culture; format: functional; conditions: Candida albicans, 0304103, 48 h
Description: Antifungal activity against FLC resistant Candida albicans 0304103 after 48 hrs in presence of fluconazol by checkerboard microdilution method

[7] = target: Histone deacetylase 1 (Homo sapiens, UniProt Q13547); experiment: Inhibition of full length human recombinant HDAC1 expressed in baculovirus expression system using (Ac-Leu-Gly-Lys(Ac)-AMC as substrate preincubated for 5 mins followed by substrate addition and measured after 30 mins by fluorescence assay
[8] = test system: K562; experiment: Antiproliferative activity against human K562 cells after 48 hrs by CCK-8 assay; format: functional, cell-based; conditions: K562, 48 h
[9] = test system: Candida albicans; experiment: microbe, parasite or virus in culture; format: functional; conditions: Candida albicans, 100, 48 h
Description: Antifungal activity against FLC resistant Candida albicans 100 assessed as fluconazol MIC50 after 48 hrs by checkerboard microdilution method

[10] = test system: HEL; experiment: Antiproliferative activity against human HEL cells after 48 hrs by CCK-8 assay; format: functional, cell-based
[11] = test system: Candida albicans; experiment: Antifungal activity against FLC resistant Candida albicans 100 after 48 hrs by checkerboard microdilution method; format: functional; conditions: Candida albicans, 100, 48 h
[12] = test system: Candida albicans; experiment: Antifungal activity against FLC resistant Candida albicans 100 after 48 hrs in presence of fluconazol by checkerboard microdilution method; format: functional; conditions: Candida albicans, 100, 48 h
[13] = test system: Candida albicans; experiment: microbe, parasite or virus in culture; format: functional; conditions: Candida albicans, 0304103, 48 h; remark: listed apart in the source
Description: Antifungal activity against FLC resistant Candida albicans 0304103 after 48 hrs by checkerboard microdilution method

[14] = test system: Candida albicans; experiment: microbe, parasite or virus in culture; format: functional; conditions: Candida albicans, 0710922, 48 h; remark: listed apart in the source
Description: Antifungal activity against FLC resistant Candida albicans 0710922 assessed as fluconazol MIC50 after 48 hrs by checkerboard microdilution method

[15] = test system: Candida albicans; experiment: Synergistic antifungal activity against FLC resistant Candida albicans 0304103 assessed as FIC index after 48 hrs by checkerboard microdilution method; format: functional
[16] = test system: Candida albicans; experiment: microbe, parasite or virus in culture; format: functional; conditions: Candida albicans, 0304103, 48 h; remark: listed apart in the source
Description: Antifungal activity against FLC resistant Candida albicans 0304103 assessed as fluconazol MIC50 after 48 hrs by checkerboard microdilution method

[17] = test system: Candida albicans; experiment: Synergistic antifungal activity against FLC resistant Candida albicans 100 assessed as FIC index after 48 hrs by checkerboard microdilution method; format: functional
[18] = test system: HEL; experiment: Antiproliferative activity against human HEL cells after 48 hrs in presence of JAK2 inhibitor CYT-387 by CCK-8 assay; format: functional, cell-based
[19] = test system: Mus musculus; experiment: Protection against spleen enlargement in SCID mouse xenografted with human HEL cells at 10 mg/kg, ip qd; format: functional, organism-based
[20] = test system: Mus musculus; experiment: In vivo antifungal activity against FLC resistant Candida albicans 0304103 infected in ICR mouse assessed as mouse survival at 5 mg/kg, ip qd up to 20 days (reference value: 4.5 day); format: functional, organism-based
[21] = test system: Mus musculus; experiment: In vivo antifungal activity against FLC resistant Candida albicans 0304103 infected in ICR mouse assessed as mouse survival at 5 mg/kg, ip qd up to 20 days in co-treated with 1 mg/kg, ip qd fluconazol (reference value: 4.5 day); format: functional
[22] = test system: HEL; experiment: Antitumor activity in human HEL cells xenografted in SCID mouse assessed as mouse survival time at 10 mg/kg, ip qd; format: functional
[23] = test system: HEL; experiment: Antitumor activity against human HEL cells xenografted in BALB/C nude mouse assessed as tumor growth inhibition at 10 mg/kg, ip bid treated for 21 consecutive days relative to control; format: functional; conditions: read-out: TGI
[24] = test system: HL-60; experiment: Antiproliferative activity against human HL60 cells after 48 hrs in presence of JAK2 inhibitor CYT-387 by CCK-8 assay; format: functional, cell-based; conditions: HL-60, 48 h
[25] = test system: K562; experiment: Antiproliferative activity against human K562 cells after 48 hrs in presence of JAK2 inhibitor CYT-387 by CCK-8 assay; format: functional, cell-based; conditions: K562, 48 h

Sequence of Tyrosine-protein kinase JAK2 (O60674 whole entry): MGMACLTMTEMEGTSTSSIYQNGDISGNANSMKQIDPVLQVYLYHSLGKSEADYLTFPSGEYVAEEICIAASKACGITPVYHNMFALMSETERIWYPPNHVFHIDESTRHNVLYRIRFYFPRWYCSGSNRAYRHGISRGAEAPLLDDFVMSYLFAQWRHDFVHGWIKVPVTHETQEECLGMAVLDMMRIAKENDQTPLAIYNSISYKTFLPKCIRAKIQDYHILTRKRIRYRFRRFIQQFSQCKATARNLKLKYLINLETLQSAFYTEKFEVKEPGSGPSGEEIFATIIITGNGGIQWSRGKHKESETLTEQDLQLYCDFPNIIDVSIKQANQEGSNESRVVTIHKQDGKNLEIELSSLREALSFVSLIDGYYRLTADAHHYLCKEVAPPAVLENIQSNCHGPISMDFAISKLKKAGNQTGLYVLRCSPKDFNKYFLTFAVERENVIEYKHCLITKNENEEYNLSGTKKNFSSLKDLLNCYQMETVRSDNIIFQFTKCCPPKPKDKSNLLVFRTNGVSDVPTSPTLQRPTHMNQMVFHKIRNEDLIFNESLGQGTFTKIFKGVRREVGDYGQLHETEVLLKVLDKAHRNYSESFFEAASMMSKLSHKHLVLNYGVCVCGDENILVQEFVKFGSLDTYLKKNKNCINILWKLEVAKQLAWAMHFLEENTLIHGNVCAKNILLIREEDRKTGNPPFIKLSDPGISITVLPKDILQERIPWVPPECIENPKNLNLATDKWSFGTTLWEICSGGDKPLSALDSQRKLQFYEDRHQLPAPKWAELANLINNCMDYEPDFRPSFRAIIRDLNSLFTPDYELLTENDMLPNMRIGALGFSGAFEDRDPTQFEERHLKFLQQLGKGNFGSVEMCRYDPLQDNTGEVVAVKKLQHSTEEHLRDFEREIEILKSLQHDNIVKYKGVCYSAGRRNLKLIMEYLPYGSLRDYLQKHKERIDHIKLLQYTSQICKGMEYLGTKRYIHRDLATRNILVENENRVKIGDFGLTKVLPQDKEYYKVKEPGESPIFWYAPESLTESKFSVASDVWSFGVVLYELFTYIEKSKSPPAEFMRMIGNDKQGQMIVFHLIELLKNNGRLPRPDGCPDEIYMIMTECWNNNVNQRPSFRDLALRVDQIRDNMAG
Sequence of Histone deacetylase 1 (Q13547 whole entry): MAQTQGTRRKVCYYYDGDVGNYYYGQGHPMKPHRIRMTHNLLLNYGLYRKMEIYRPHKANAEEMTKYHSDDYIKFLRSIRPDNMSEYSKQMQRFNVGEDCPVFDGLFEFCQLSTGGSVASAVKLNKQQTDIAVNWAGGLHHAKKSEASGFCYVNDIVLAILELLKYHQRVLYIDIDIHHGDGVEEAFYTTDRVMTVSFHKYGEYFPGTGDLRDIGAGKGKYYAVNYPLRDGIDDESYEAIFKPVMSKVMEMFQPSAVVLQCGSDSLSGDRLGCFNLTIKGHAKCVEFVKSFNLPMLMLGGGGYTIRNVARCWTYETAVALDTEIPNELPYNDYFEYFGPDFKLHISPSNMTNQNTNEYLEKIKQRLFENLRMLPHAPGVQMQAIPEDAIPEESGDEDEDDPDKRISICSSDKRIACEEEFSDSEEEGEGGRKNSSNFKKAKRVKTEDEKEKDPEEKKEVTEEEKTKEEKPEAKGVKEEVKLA

Compound | fractional inhibitory concentration index (FICI) [1] | MIC50 [2] [µg/mL] | IC50 [3] [µM] | IC50 [4] [µM] | MIC50 [5] [µg/mL] | MIC50 [6] [µg/mL] | IC50 [7] [µM] | IC50 [8] [µM] | MIC50 [9] [µg/mL] | IC50 [10] [µM] | MIC50 [11] [µg/mL] | MIC50 [12] [µg/mL] | MIC50 [13] [µg/mL] | MIC50 [14] [µg/mL] | fractional inhibitory concentration index (FICI) [15] | MIC50 [16] [µg/mL] | fractional inhibitory concentration index (FICI) [17] | further results
Nc1ccccc1NC(=O)c1ccc(-c2ccnc(Nc3ccc(N4CCOCC4)cc3)n2)cc1 | >2 | > 64 | 0.11 | > 50 | > 64 | > 64 | > 50 | > 50 | 0.5 (≈ 1.07 µM) | > 50 | > 64 | 64 | > 64 | > 64 | >2 | > 64 | 1.01 | –
Nc1cc(F)ccc1NC(=O)/C=C/c1cnn(C/C=C/c2ccccc2)c1 | – | > 64 | – | 21.7 to 33.6 | – | – | – | 21.7 to 33.6 | – | 21.7 to 33.6 | > 64 | – | > 64 | – | – | – | – | IC50 [18]: 1.64 to 4.19 µM; Activity [19]: inactive; Activity [20]: inactive; MST [21]: 5 days; Activity [22]: inactive; inhibition in vivo at 10 mg/kg [23]: 16.4%; IC50 [24]: 1.64 to 4.19 µM; IC50 [25]: 1.64 to 4.19 µM
CS(=O)(=O)Nc1ccc(-c2ccnc(Nc3ccc(N4CCC(C(=O)NCc5ccc(C(=O)NO)cc5)CC4)cc3)n2)cc1 | 1.01 | > 64 | 0.018 | > 50 | 64 (≈ 104 µM) | 8 (≈ 13 µM) | 1.1 | 10 | 1 (≈ 1.62 µM) | 6.3 | > 64 | 4 | > 64 | 0.5 (≈ 0.812 µM) | 0.15 | 2 (≈ 3.25 µM) | 0.078 | –
CS(=O)(=O)Nc1ccc(-c2ccnc(Nc3ccc(N4CCC(C(=O)NCCCCCC(=O)NO)CC4)cc3)n2)cc1 | 2 | > 64 | 0.003 | 37 | 64 (≈ 107 µM) | 16 (≈ 26.9 µM) | 0.35 | 10 | 0.25 (≈ 0.42 µM) | 17 | 32 | 16 | 32 (≈ 53.7 µM) | 64 (≈ 107 µM) | 0.5 | 0.5 (≈ 0.839 µM) | 0.5 | –
N#CCNC(=O)c1ccc(-c2ccnc(Nc3ccc(N4CCC(C(=O)Nc5ccc(/C=C/C(=O)NO)cc5)CC4)cc3)n2)cc1 | 0.31 | > 64 | 0.015 | > 50 | 16 (≈ 25.9 µM) | 4 (≈ 6.49 µM) | 5.1 | > 50 | 1 (≈ 1.62 µM) | > 50 | > 64 | 64 | > 64 | 2 (≈ 3.24 µM) | 0.078 | 1 (≈ 1.62 µM) | 1.02 | –
CS(=O)(=O)Nc1ccc(-c2ccnc(Nc3ccc(N4CCC(C(=O)Nc5ccccc5N)CC4)cc3)n2)cc1 | >2 | > 64 | 0.002 | 16 | > 64 | > 64 | 2.1 | 9.5 | 64 (≈ 115 µM) | 3.2 | > 64 | 64 | > 64 | > 64 | >2 | > 64 | 2 | –
CS(=O)(=O)Nc1ccc(-c2ccnc(Nc3ccc(N4CCC(C(=O)NCCCCC(=O)NO)CC4)cc3)n2)cc1 | 0.51 | > 64 | 0.001 | > 50 | 32 (≈ 55 µM) | 16 (≈ 27.5 µM) | 2.2 | 11 | 0.5 (≈ 0.86 µM) | 8.1 | > 64 | 16 | 32 (≈ 55 µM) | 0.5 (≈ 0.86 µM) | 0.5 | 0.5 (≈ 0.86 µM) | 0.26 | –
CS(=O)(=O)Nc1ccc(-c2ccnc(Nc3ccc(N4CCC(C(=O)NCCCCCCC(=O)NO)CC4)cc3)n2)cc1 | 0.5 | > 64 | 0.002 | 12 | 32 (≈ 52.5 µM) | 8 (≈ 13.1 µM) | 0.25 | 8.9 | 0.25 (≈ 0.41 µM) | 3.9 | > 64 | 8 | > 64 | 0.25 (≈ 0.41 µM) | 0.13 | 0.5 (≈ 0.82 µM) | 0.13 | –
N#CCNC(=O)c1ccc(-c2ccnc(Nc3ccc(N4CCC(C(=O)Nc5ccccc5N)CC4)cc3)n2)cc1 | 2 | > 64 | 0.008 | > 50 | 64 (≈ 117 µM) | > 64 | 1.7 | > 50 | > 64 | 6.6 | > 64 | > 64 | > 64 | 64 (≈ 117 µM) | >2 | > 64 | >2 | –
N#CCNC(=O)c1ccc(-c2ccnc(Nc3ccc(N4CCC(C(=O)Nc5ccc(C(=O)NO)cc5)CC4)cc3)n2)cc1 | >2 | > 64 | 0.016 | > 50 | > 64 | 64 (≈ 108 µM) | 24 | > 50 | 2 (≈ 3.39 µM) | > 50 | > 64 | 64 | > 64 | > 64 | 1.01 | 0.5 (≈ 0.847 µM) | 1.03 | –
CS(=O)(=O)Nc1ccc(-c2ccnc(Nc3ccc(N4CCC(C(=O)NO)CC4)cc3)n2)cc1 | 0.51 | > 64 | 0.001 | > 50 | 32 (≈ 66.3 µM) | 4 (≈ 8.29 µM) | 2.9 | 18 | 1 (≈ 2.07 µM) | > 50 | > 64 | 8 | > 64 | 0.25 (≈ 0.518 µM) | 0.07 | 0.5 (≈ 1.04 µM) | 0.14 | –
CS(=O)(=O)Nc1ccc(-c2ccnc(Nc3ccc(N4CCC(C(=O)Nc5ccc(C(=O)NO)cc5)CC4)cc3)n2)cc1 | >2 | > 64 | 0.002 | 11 | > 64 | > 64 | 0.38 | 8.6 | 16 (≈ 26.6 µM) | 2 | > 64 | 64 | > 64 | > 64 | >2 | > 64 | 1.25 | –
CS(=O)(=O)Nc1ccc(-c2ccnc(Nc3ccc(N4CCC(C(=O)NCCCC(=O)NO)CC4)cc3)n2)cc1 | 0.51 | > 64 | 0.001 | > 50 | 32 (≈ 56.4 µM) | 8 (≈ 14.1 µM) | 9.2 | 12 | 1 (≈ 1.76 µM) | 12 | > 64 | 8 | 32 (≈ 56.4 µM) | 0.5 (≈ 0.881 µM) | 0.31 | 4 (≈ 7.05 µM) | 0.14 | –
N#CCNC(=O)c1ccc(-c2ccnc(Nc3ccc(N4CCC(C(=O)NO)CC4)cc3)n2)cc1 | 1.02 | > 64 | 0.004 | > 50 | 64 (≈ 136 µM) | 8 (≈ 17 µM) | 2.7 | > 50 | 0.5 (≈ 1.06 µM) | > 50 | > 64 | 2 | > 64 | 1 (≈ 2.12 µM) | 0.13 | 0.25 (≈ 0.53 µM) | 0.039 | –

Reference: ChEMBL document CHEMBL4145634, “Discovery of Janus Kinase 2 (JAK2) and Histone Deacetylase (HDAC) Dual Inhibitors as a Novel Strategy for the Combinational Treatment of Leukemia and Invasive Fungal Infections” (J Med Chem, 2018)
